# In US12492188B2, “1H-benzo[D]imidazole derivatives as TLR9 inhibitors for the treatment of fibrosis” (BRISTOL-MYERS SQUIBB COMPANY, priority 2020, dated 2025):
# Read-outs that look alike come from different tables or passages of the source.
# Target: T1, human TLR9 (Homo sapiens, UniProt Q9NR96)
# T1 construct: host or cells: HEK-Blue cells (HEK293-derived reporter line)
# T1 sequence (Q9NR96 26-1032): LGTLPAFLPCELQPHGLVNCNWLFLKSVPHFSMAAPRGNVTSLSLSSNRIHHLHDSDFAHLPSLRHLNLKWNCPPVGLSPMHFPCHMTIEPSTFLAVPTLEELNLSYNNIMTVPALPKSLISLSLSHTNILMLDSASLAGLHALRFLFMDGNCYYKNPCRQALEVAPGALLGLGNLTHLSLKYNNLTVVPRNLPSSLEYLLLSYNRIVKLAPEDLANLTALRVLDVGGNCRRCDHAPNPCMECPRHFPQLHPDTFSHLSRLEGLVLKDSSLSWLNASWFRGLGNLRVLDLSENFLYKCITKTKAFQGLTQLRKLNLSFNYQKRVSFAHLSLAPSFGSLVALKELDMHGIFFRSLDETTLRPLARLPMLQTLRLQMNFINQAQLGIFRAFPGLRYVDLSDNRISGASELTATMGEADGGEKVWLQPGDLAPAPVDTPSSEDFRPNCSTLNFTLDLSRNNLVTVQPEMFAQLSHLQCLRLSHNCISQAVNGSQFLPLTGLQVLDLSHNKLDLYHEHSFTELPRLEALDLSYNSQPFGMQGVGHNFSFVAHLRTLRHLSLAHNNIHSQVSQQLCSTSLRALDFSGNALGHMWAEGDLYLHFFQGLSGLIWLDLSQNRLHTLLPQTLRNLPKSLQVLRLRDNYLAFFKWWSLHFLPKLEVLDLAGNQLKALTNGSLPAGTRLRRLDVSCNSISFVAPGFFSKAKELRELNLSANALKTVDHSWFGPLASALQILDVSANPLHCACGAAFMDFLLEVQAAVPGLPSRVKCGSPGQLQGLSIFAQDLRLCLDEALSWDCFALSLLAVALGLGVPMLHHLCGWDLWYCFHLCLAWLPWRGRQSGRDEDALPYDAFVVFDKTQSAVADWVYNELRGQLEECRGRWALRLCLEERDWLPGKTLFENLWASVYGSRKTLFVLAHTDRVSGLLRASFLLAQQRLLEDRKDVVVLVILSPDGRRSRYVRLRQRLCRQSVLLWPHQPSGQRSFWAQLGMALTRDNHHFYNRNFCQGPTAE
# Experiment: TLR9 inhibition reporter assay (HEK-Blue cells, secreted embryonic alkaline phosphatase reporter)
# Assay type: cell-based
# Procedure, shortened: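 Read-out is SEAP colour from HEK-Blue Detection medium after 22 h at 37 °C, converted to percent inhibition between agonist-plus-DMSO and reference-inhibitor wells. Receptor-overexpressing HEK-Blue cells received compound over 0.05 nM–50 μM for 30 min before agonist: gardiquimod 7.5 μM for TLR7, R848 15.9 μM for TLR8, ODN2006 5 nM for TLR9.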
# [1] = HEK-Blue cells overexpressing human TLR9, stimulated with ODN2006 5 nM, read-out: TLR 9 IC50
# [2] = HEK-Blue human TLR9 reporter cells
# [3] = HEK-Blue cells overexpressing human TLR9, stimulated with ODN2006 5 nM, 22 hour incubation, reporter readout
IC50 [1],IC50 [2],IC50 [3],SMILES
180 nM,180 nM,–,"Cc1cc(C2CCN(C3CC4CCC(C3)N4C(C)C)CC2)cc2[nH]c(-c3ccc(S(C)(=O)=O)c(F)c3)nc12 (stereo not shown) [Example 348, 2-(3-fluoro-4-(methylsulfonyl)phenyl)-6-(1-(8-isopropyl-8-azabicyclo[3.2.1]octan-3-yl)piperidin-4-yl)-4-methyl-1H-benzo[d]imidazole]"
20 nM,21 nM,–,"COc1cc(-c2nc3c(C)cc(C4CCN(C5CC6CCC(C5)N6C5CCC5)CC4)cc3[nH]2)cn2ncnc12 (stereo not shown) [Example 361, 6-(6-(1-(8-cyclobutyl-8-azabicyclo[3.2.1]octan-3-yl)piperidin-4-yl)-4-methyl-1H-benzo[d]imidazol-2-yl)-8-methoxy-[1,2,4]triazolo[1,5-a]pyridine]"
152 nM,150 nM,–,"COc1cc(-c2nc3c(C)cc(C4CCN(C5CC6CCC(C5)N6C(C)C)CC4)cc3[nH]2)cn2ncnc12 (stereo not shown) [Example 362, 6-(6-(1-(8-isopropyl-8-azabicyclo[3.2.1]octan-3-yl)piperidin-4-yl)-4-methyl-1H-benzo[d]imidazol-2-yl)-8-methoxy-[1,2,4]triazolo[1,5-a]pyridine]"
446 nM,–,450 nM,"Cc1cc(-c2ccc(CCN3CCC(C)(O)CC3)cc2)cc2c1nc(-c1ccc(S(C)(=O)=O)cc1)n2C [Example 366, 1-(4-(1,4-dimethyl-2-(4-(methylsulfonyl)phenyl)-1H-benzo[d]imidazol-6-yl)phenethyl)-4-methylpiperidin-4-ol]"
3240 nM,–,3.2 nM,"CN(C)C1CCN(Cc2ccc(-c3ccc4nc(-c5ccc(F)c(F)c5)n(C)c4c3)cc2)CC1 [Example 382, 1-(4-(2-(3,4-difluorophenyl)-1-methyl-1H-benzo[d]imidazol-6-yl)benzyl)-N,N-dimethylpiperidin-4-amine]"
41000 nM,–,41 nM,"CN(C)C1CCN(Cc2ccc(-c3ccc4nc(-c5cccc(S(C)(=O)=O)c5)n(C)c4c3)cc2)CC1 [Example 384, N,N-dimethyl-1-(4-(1-methyl-2-(3-(methylsulfonyl)phenyl)-1H-benzo[d]imidazol-6-yl)benzyl)piperidin-4-amine]"
77 nM,–,77 nM,"CS(=O)(=O)c1ccc(-c2nc3c(F)cc(-c4ccc(CN5CC6(C5)CN(C5CCOCC5)C6)cc4)cc3n2C2CC2)cc1 [Example 412, 1-cyclopropyl-4-fluoro-2-(4-(methylsulfonyl)phenyl)-6-(4-((6-(tetrahydro-2H-pyran-4-yl)-2,6-diazaspiro[3.3]heptan-2-yl)methyl)phenyl)-1H-benzo[d]imidazole]"
65 nM,–,65 nM,"CC(C)CN1CCC(N2CCC(c3ccc4nc(-c5ccc(S(C)(=O)=O)cc5)n(C5CC5)c4c3F)CC2)CC1 [Example 415, 1-cyclopropyl-7-fluoro-6-(1′-isobutyl-[1,4′-bipiperidin]-4-yl)-2-(4-(methylsulfonyl)phenyl)-1H-benzo[d]imidazole]"
800 nM,–,800 nM,"Cc1cc(-c2ccc(OC3CCN(CC(C)C)CC3)cc2)cc2c1nc(-c1ccc(S(C)(=O)=O)cc1)n2C [Example 417, 6-(4-((1-isobutylpiperidin-4-yl)oxy)phenyl)-1,4-dimethyl-2-(4-(methylsulfonyl)phenyl)-1H-benzo[d]imidazole]"
2510 nM,–,2500 nM,"Cc1cc(CN2CCC(c3cc(C)c4nc(-c5ccc(S(C)(=O)=O)cc5)n(C)c4c3)CC2)cc(C)n1 [Example 418, 6-(1-((2,6-dimethylpyridin-4-yl)methyl)piperidin-4-yl)-1,4-dimethyl-2-(4-(methylsulfonyl)phenyl)-1H-benzo[d]imidazole]"
–,–,61 nM,"CN(C)c1ccc(-c2nc3ccc(-c4ccc(CN5CCC(N(C)C)CC5)cc4)cc3n2C)cc1 [Example 425, 1-(4-(2-(4-(dimethylamino)phenyl)-1-methyl-1H-benzo[d]imidazol-6-yl)benzyl)-N,N-dimethylpiperidin-4-amine]"

# Second part, the molecule before the results:
SMILES,IC50 [1],IC50 [2],IC50 [3]
"Cc1cc(C2CCN(C3CC4CCC(C3)N4C3CC3)CC2)cc2[nH]c(-c3ccc(S(C)(=O)=O)c(F)c3)nc12 (stereo not shown) [Example 347, 6-(1-(8-cyclopropyl-8-azabicyclo[3.2.1]octan-3-yl)piperidin-4-yl)-2-(3-fluoro-4-(methylsulfonyl)phenyl)-4-methyl-1H-benzo[d]imidazole]",44 nM,44 nM,–
"Cc1cc(C2CCN(C3CC4CCC(C3)N4C3CCC3)CC2)cc2[nH]c(-c3ccc(S(C)(=O)=O)c(F)c3)nc12 (stereo not shown) [Example 349, 6-(1-(8-cyclobutyl-8-azabicyclo[3.2.1]octan-3-yl)piperidin-4-yl)-2-(3-fluoro-4-(methylsulfonyl)phenyl)-4-methyl-1H-benzo[d]imidazole]",24 nM,24 nM,–
"Cc1cc(C2CCN(C3CC4CCC(C3)N4C3CCC3)CC2)cc2[nH]c(-c3ccc(S(C)(=O)=O)c(F)c3)nc12 (stereo not shown) [Example 350, 6-(1-(8-cyclobutyl-8-azabicyclo[3.2.1]octan-3-yl)piperidin-4-yl)-2-(3-fluoro-4-(methylsulfonyl)phenyl)-4-methyl-1H-benzo[d]imidazole]",55 nM,55 nM,–
"Cc1cc(C2CCN(C3CC4CCC(C3)N4CC3CC3)CC2)cc2[nH]c(-c3ccc(S(C)(=O)=O)c(F)c3)nc12 (stereo not shown) [Example 351, 6-(1-(8-(cyclopropylmethyl)-8-azabicyclo[3.2.1]octan-3-yl)piperidin-4-yl)-2-(3-fluoro-4-(methylsulfonyl)phenyl)-4-methyl-1H-benzo[d]imidazole]",48 nM,48 nM,–
"Cc1cc(C2CCN(C3CC4CCC(C3)N4CC3CC3)CC2)cc2[nH]c(-c3ccc(S(C)(=O)=O)c(F)c3)nc12 (stereo not shown) [Example 352, 6-(1-(8-(cyclopropylmethyl)-8-azabicyclo[3.2.1]octan-3-yl)piperidin-4-yl)-2-(3-fluoro-4-(methylsulfonyl)phenyl)-4-methyl-1H-benzo[d]imidazole]",26 nM,26 nM,–
"CN(C)C1CCN(Cc2ccc(-c3ccc4nc(-c5cc(F)cc(F)c5)n(C)c4c3)cc2)CC1 [Example 381, 1-(4-(2-(3,5-difluorophenyl)-1-methyl-1H-benzo[d]imidazol-6-yl)benzyl)-N,N-dimethylpiperidin-4-amine]",140 nM,–,140 nM
"CC(C)N1CC2(CN(Cc3ccc(-c4cc(F)c5nc(-c6ccc(S(C)(=O)=O)cc6)n(C6CC6)c5c4)cc3)C2)C1 [Example 410, 1-cyclopropyl-4-fluoro-6-(4-((6-isopropyl-2,6-diazaspiro[3.3]heptan-2-yl)methyl)phenyl)-2-(4-(methylsulfonyl)phenyl)-1H-benzo[d]imidazole]",44 nM,–,44 nM
"CC(C)CN1CC2(CN(Cc3ccc(-c4cc(F)c5nc(-c6ccc(S(C)(=O)=O)cc6)n(C6CC6)c5c4)cc3)C2)C1 [Example 411, 1-cyclopropyl-4-fluoro-6-(4-((6-isobutyl-2,6-diazaspiro[3.3]heptan-2-yl)methyl)phenyl)-2-(4-(methylsulfonyl)phenyl)-1H-benzo[d]imidazole]",0.9 nM,–,0.85 nM
"Cc1cc(-c2ccc(CN3CCN(CC(C)C)CC3)cc2)cc2c1nc(-c1ccc(S(C)(=O)=O)cc1)n2C [Example 414, 6-(4-((4-isobutylpiperazin-1-yl)methyl)phenyl)-1,4-dimethyl-2-(4-(methylsulfonyl)phenyl)-1H-benzo[d]imidazole]",–,–,1800 nM
"Cc1cc(-c2ccc(OC3CCN(C(C)C)CC3)cc2)cc2c1nc(-c1ccc(S(C)(=O)=O)cc1)n2C [Example 416, 6-(4-((1-isopropylpiperidin-4-yl)oxy)phenyl)-1,4-dimethyl-2-(4-(methylsulfonyl)phenyl)-1H-benzo[d]imidazole]",1190 nM,–,1200 nM
